From paper PMC12067444, “Synthesis and Pharmacological Characterization of Novel Peripheral Cannabinoid-1 Receptor Blockers Based on a Tricyclic Scaffold” (Journal of Medicinal Chemistry, 2025)

Key:
TA98 = assay: Mini-Ames assay, strain TA98; type: cell-based; conditions: for F value: fold vs DMSO; for Growth of lawn: replicates 1-3;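 on solubility: P0 means no precipitate in solution and no crystal growth on plates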
Description: (§1) Mini Am es assay. To conduct the assay, top agar was melted with a microwave and maintained at a temper atur e ≥47 °C in a water bath. T he assay was performed using a heat block set to 45 °C ± 2 °C. 12 × 75 mm test tubes were prepared in duplicates. For each concentration, the following components were added sequentially to a test tube:
(§2) […] The mixture was vortexed and then dispensed into w ells using a dispo sable pipette. The plates wer e then incubated at 37±2 °C for approximately 48 to 72 hours.
(§3) BBbbbb BBBBbbbb BBBB = AAAAbbbbbbAAbb nnnnnnbbbbbb bboo bbbbAAbbbbbbbbnnbbbb oobbbb bbbb eeee dd bbbbbb AAbbbbnn gg AAAAbbbbbbAAbb nnnnnnbbbbbb bbBB bbbbAAbbbbbbbbnnbbbb BBbbbb DDDDDDDD nn bbAAbbbbaaAAbb AAbbbbnnaa The mutagenicity of the compound was determined by evaluating the number of revertant colonies in strains TA98 and TA100. A compound was […]
(§4) related and if the fold increase in revertants (F) was equal to or greater than 2 for […]
(§5) background lawn growth on the agar plates. A scoring system ranging from 0 to 4 […]
growth, respectively. A score of 4 signified full '100%' growth. […]
(§6) background lawn and required magnification for visualization. […]

mice = assay: Cataleptic behavior (bar test) induced by WIN-55,212; type: in vivo, mouse; conditions: rimonabant 10 mg/kg PO, BNS808 1 mg/kg; 30 min before WIN-55,212 3 mg/kg IP; bar test at 60 min
Description: Catalepsy was assayed using the bar test. Mice were taken out of their home cages, and their forepaws were placed on a horizontal bar measuring 0.5 cm in diameter, positioned 4 cm above the bench surface. Typically, vehicle-treated mice released the bar within 2 s. Cataleptic behavior was defined as the mice remaining motionless, grasping onto the bar, with an arbitrary cutoff of 30 s. The CB1R antagonists, including rimonabant at doses 1 and 10 mg/kg and BNS808 at a dose of 1 mg/kg, were administered 30 min before the IP injection of 3 mg/kg WIN-55,212 (a CB1R agonist). The test was conducted 60 min after the administration of the agonist.

TA100 = assay: Mini-Ames assay, strain TA100; type: cell-based; conditions: for F value: fold vs DMSO; for Growth of lawn: replicates 1-3
Description: as §1, §2, §3, §4, §5
complete cytotoxicity, while scores 1, 2, and 3 represented 25%, 50%, and 75% growth, respectively. A score of 4 signified full '100%' growth. The background […]
as §6

With O=S(=O)(NC1CCCOc2c1nn(-c1ccccc1Cl)c2-c1ccc(Cl)cc1)c1ccc(Cl)cc1 (stereo not drawn) [BNS808, 4-chloro-N-[2-(2-chlorophenyl)-3-(4-chlorophenyl)-5,6,7,8-tetrahydrooxepino[3,2-c]pyrazol-8-yl]benzenesulfonamide] the “Number of revertants MEAN” value (TA98; TA98, +S9, 31.25 μg/well) was 10.67, the solubility (TA98; TA98, +S9, 31.25 μg/well) was “P0” and the F value (TA98; TA98, +S9, 31.25 μg/well) was 0.97. The Growth of lawn (TA98; TA98, +S9, 31.25 μg/well) was 4 (A score of 4 signified full '100%' growth), the “Number of revertants MEAN” value (TA98; TA98, +S9, 62.5 μg/well) was 11.33 and the solubility (TA98; TA98, +S9, 62.5 μg/well) was “P0”. The F value (TA98; TA98, +S9, 62.5 μg/well) was 1.03, the Growth of lawn (TA98; TA98, +S9, 62.5 μg/well) was 4 (A score of 4 signified full '100%' growth) and the “Number of revertants MEAN” value (TA98; TA98, +S9, 125 μg/well) was 11.33. The solubility (TA98; TA98, +S9, 125 μg/well) was “P0”, the F value (TA98; TA98, +S9, 125 μg/well) was 1.03 and the Growth of lawn (TA98; TA98, +S9, 125 μg/well) was 4 (A score of 4 signified full '100%' growth). For the same molecule, the “Number of revertants MEAN” value (TA98; TA98, +S9, 250 μg/well) was 13.00, the solubility (TA98; TA98, +S9, 250 μg/well) was “P1 (0~20% growth of crystals)” and the F value (TA98; TA98, +S9, 250 μg/well) was 1.18. For the same molecule, the Growth of lawn (TA98; TA98, +S9, 250 μg/well) was 4 (A score of 4 signified full '100%' growth), the “Number of revertants MEAN” value (TA98; TA98, +S9, 500 μg/well) was 10.00 and the solubility (TA98; TA98, +S9, 500 μg/well) was “P2 (20%~60% growth of crystals)”. For the same molecule, the F value (TA98; TA98, +S9, 500 μg/well) was 0.91, the Growth of lawn (TA98; TA98, +S9, 500 μg/well) was 4 (A score of 4 signified full '100%' growth) and the “Number of revertants MEAN” value (TA98; TA98, +S9, 1000 μg/well) was 9.67. The solubility (TA98; TA98, +S9, 1000 μg/well) was “P3 (60%~100% growth of crystals)”, the F value (TA98; TA98, +S9, 1000 μg/well) was 0.88 and the Growth of lawn (TA98; TA98, +S9, 1000 μg/well) was 4 (A score of 4 signified full '100%' growth). The “Number of revertants MEAN” value (TA98; TA98, -S9, 31.25 μg/well) was 6.67, the solubility (TA98; TA98, -S9, 31.25 μg/well) was “P0” and the F value (TA98; TA98, -S9, 31.25 μg/well) was 0.91. For the same molecule, the Growth of lawn (TA98; TA98, -S9, 31.25 μg/well) was 4 (A score of 4 signified full '100%' growth), the “Number of revertants MEAN” value (TA98; TA98, -S9, 62.5 μg/well) was 8.67 and the solubility (TA98; TA98, -S9, 62.5 μg/well) was “P0”. For the same molecule, the F value (TA98; TA98, -S9, 62.5 μg/well) was 1.18, the Growth of lawn (TA98; TA98, -S9, 62.5 μg/well) was 4 (A score of 4 signified full '100%' growth) and the “Number of revertants MEAN” value (TA98; TA98, -S9, 125 μg/well) was 7.33. The solubility (TA98; TA98, -S9, 125 μg/well) was “P0”, the F value (TA98; TA98, -S9, 125 μg/well) was 1.00 and the Growth of lawn (TA98; TA98, -S9, 125 μg/well) was 4 (A score of 4 signified full '100%' growth). For the same molecule, the “Number of revertants MEAN” value (TA98; TA98, -S9, 250 μg/well) was 4.00, the solubility (TA98; TA98, -S9, 250 μg/well) was “P1 (0~20% growth of crystals)” and the F value (TA98; TA98, -S9, 250 μg/well) was 0.55. The Growth of lawn (TA98; TA98, -S9, 250 μg/well) was 4 (A score of 4 signified full '100%' growth), the “Number of revertants MEAN” value (TA98; TA98, -S9, 500 μg/well) was 5.33 and the solubility (TA98; TA98, -S9, 500 μg/well) was “P2 (20%~60% growth of crystals)”. The F value (TA98; TA98, -S9, 500 μg/well) was 0.73, the Growth of lawn (TA98; TA98, -S9, 500 μg/well) was 4 (A score of 4 signified full '100%' growth) and the “Number of revertants MEAN” value (TA98; TA98, -S9, 1000 μg/well) was 3.33. The solubility (TA98; TA98, -S9, 1000 μg/well) was “P3 (60%~100% growth of crystals)”, the F value (TA98; TA98, -S9, 1000 μg/well) was 0.45 and the Growth of lawn (TA98; TA98, -S9, 1000 μg/well) was 4 (A score of 4 signified full '100%' growth). The “blockade of WIN-55,212-induced cataleptic behavior” value (mice) was “only rimonabant (10 mg/kg, PO) blocked the cataleptic behavior”, the “Number of revertants MEAN” value (TA100; TA100, +S9, 31.25 μg/well) was 40.67 and the solubility (TA100; TA100, +S9, 31.25 μg/well) was “P0”. The F value (TA100; TA100, +S9, 31.25 μg/well) was 1.03, the Growth of lawn (TA100; TA100, +S9, 31.25 μg/well) was 4 (A score of 4 signified full '100%' growth) and the “Number of revertants MEAN” value (TA100; TA100, +S9, 62.5 μg/well) was 34.67. For the same molecule, the solubility (TA100; TA100, +S9, 62.5 μg/well) was “P0”, the F value (TA100; TA100, +S9, 62.5 μg/well) was 0.87 and the Growth of lawn (TA100; TA100, +S9, 62.5 μg/well) was 4 (A score of 4 signified full '100%' growth). The “Number of revertants MEAN” value (TA100; TA100, +S9, 125 μg/well) was 30.00, the solubility (TA100; TA100, +S9, 125 μg/well) was “P0” and the F value (TA100; TA100, +S9, 125 μg/well) was 0.76. The Growth of lawn (TA100; TA100, +S9, 125 μg/well) was 4 (A score of 4 signified full '100%' growth), the “Number of revertants MEAN” value (TA100; TA100, +S9, 250 μg/well) was 29.33 and the solubility (TA100; TA100, +S9, 250 μg/well) was “P1 (0~20% growth of crystals)”. The F value (TA100; TA100, +S9, 250 μg/well) was 0.74, the Growth of lawn (TA100; TA100, +S9, 250 μg/well) was 4 (A score of 4 signified full '100%' growth) and the “Number of revertants MEAN” value (TA100; TA100, +S9, 500 μg/well) was 19.33. For the same molecule, the solubility (TA100; TA100, +S9, 500 μg/well) was “P2 (20%~60% growth of crystals)”, the F value (TA100; TA100, +S9, 500 μg/well) was 0.49 and the Growth of lawn (TA100; TA100, +S9, 500 μg/well) was 4 (A score of 4 signified full '100%' growth). The “Number of revertants MEAN” value (TA100; TA100, +S9, 1000 μg/well) was 16.67, the solubility (TA100; TA100, +S9, 1000 μg/well) was “P3 (60%~100% growth of crystals)” and the F value (TA100; TA100, +S9, 1000 μg/well) was 0.42. The Growth of lawn (TA100; TA100, +S9, 1000 μg/well) was 4 (A score of 4 signified full '100%' growth), the “Number of revertants MEAN” value (TA100; TA100, -S9, 31.25 μg/well) was 29.00 and the solubility (TA100; TA100, -S9, 31.25 μg/well) was “P0”. For the same molecule, the F value (TA100; TA100, -S9, 31.25 μg/well) was 0.97, the Growth of lawn (TA100; TA100, -S9, 31.25 μg/well) was 4 (A score of 4 signified full '100%' growth) and the “Number of revertants MEAN” value (TA100; TA100, -S9, 62.5 μg/well) was 23.67. For the same molecule, the solubility (TA100; TA100, -S9, 62.5 μg/well) was “P0”, the F value (TA100; TA100, -S9, 62.5 μg/well) was 0.79 and the Growth of lawn (TA100; TA100, -S9, 62.5 μg/well) was 4 (A score of 4 signified full '100%' growth). The “Number of revertants MEAN” value (TA100; TA100, -S9, 125 μg/well) was 22.67, the solubility (TA100; TA100, -S9, 125 μg/well) was “P0” and the F value (TA100; TA100, -S9, 125 μg/well) was 0.76. The Growth of lawn (TA100; TA100, -S9, 125 μg/well) was 4 (A score of 4 signified full '100%' growth), the “Number of revertants MEAN” value (TA100; TA100, -S9, 250 μg/well) was 23.00 and the solubility (TA100; TA100, -S9, 250 μg/well) was “P1 (0~20% growth of crystals)”. The F value (TA100; TA100, -S9, 250 μg/well) was 0.77, the Growth of lawn (TA100; TA100, -S9, 250 μg/well) was 4 (A score of 4 signified full '100%' growth) and the “Number of revertants MEAN” value (TA100; TA100, -S9, 500 μg/well) was 18.67. For the same molecule, the solubility (TA100; TA100, -S9, 500 μg/well) was “P2 (20%~60% growth of crystals)”, the F value (TA100; TA100, -S9, 500 μg/well) was 0.62 and the Growth of lawn (TA100; TA100, -S9, 500 μg/well) was 4 (A score of 4 signified full '100%' growth).
